System: B. burgdorferi N40
Experiment: Subculture without inhibitor after 7 days of treatment: bacteriostatic versus bactericidal
Format: cell-based, Borrelia burgdorferi
Description: After 7 days of treatment, a 5 µL aliquot from each treatment tube (and untreated control) was added to 1 mL of BSKII-RS medium to allow any remaining viable spirochetes in the sample to grow. After incubation for 7–21 days at 33 °C, the survival of the spirochetes was determined using dark-field microscopy to observe motility and by employing bioluminescence measurements to assess vitality of the recovered culture.
To further differentiate between bacteriostatic versus bactericidal activities of MTAN inhibitors, we subcultured drug treated spirochetes in the absence of inhibitors to recover any live B. burgdorferi remaining after seven days of inhibitor treatment (summarized in Table 4). If non-motile spirochetes from treated cultures were able to grow back, the inhibitor was determined to have a bacteriostatic effect at the selected concentration. […] Spirochete survival was determined by both dark-field microscopy and bioluminescence measurements. Microscopic examination allowed assessment of motility of the spirochetes whereas bioluminescence assays assessed recovery and viability of B. burgdorferi cells. […] By comparison, a reduction in bioluminescence compared to the untreated control was observed after treatment with dEt-ImmA at a 0.4 µM or greater concentration. […] After seven days of treatment, live spirochetes were only recovered when concentrations of ≤0.4 µM were used for dEt-ImmA and IADO.

Nc1ncnc2c1ncn2[C@@H]1O[C@H](CI)[C@@H](O)[C@H]1O [IADO, 5′-deoxy-5′-iodoadenosine]
recovery of live spirochetes (2 µM and 10 µM, 21 days of subculture in media lacking MTAN inhibitors): no live spirochetes were recovered | Inhibitor Activity (Dose: 2 µM, 10 µM, 7 days of treatment, then subculture): Bactericidal | concentrations at which live spirochetes were recovered (after seven days of treatment): ≤ 0.4 µM | concentrations that exert bactericidal activity (after seven days of treatment, bacteriostatic at lower concentrations): ≥ 1 µM

Reference: PMC7557402, “Evaluation of Nucleoside Analogs as Antimicrobials Targeting Unique Enzymes in Borrelia burgdorferi” (Pathogens, 2020)
